Laboratory results as given in US20110230476A1, “PI3 KINASE INHIBITORS AND USES THEREOF” (AVILA THERAPEUTICS, INC., priority 2009, published 2011).
pEC50, pIC50: −log10 of the molar value. “Also recorded” adds a separate entry of the source.

Tests used:
PI3Kγ (p120γ) = target: T1, PI3Kγ (p120γ) (Homo sapiens, UniProt P48736); test: HTRF assay, potency against active PI3Kγ; type: biochemical; details: [ATP]=50 μM, [di-C8-PIP2]=10 μM, 30 min pre-incubation, read-out: PI3Kγ Inhibition
T1 construct: purchased BPS Bioscience (San Diego, Calif.) or Millipore (Billerica, Mass.)
How it was run: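 End-point competition HTRF: enzyme (p110β/p85α 0.75 nM; p120γ 2-2.5 nM) with 10 μM di-C8-PIP2 pre-incubated 30 min at 25° C with compound, then 50 μM ATP added for 30-60 min at 25° C. Stopped, detected after 1 and 18 h; IC50 from variable-slope fit.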

Phospho-Akt(Ser473) [1] = test: Dose response in SKOV3 cells as determined by in-cell Western; type: cell-based
How it was run: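 SKOV3 cells treated with compound for 1 hr, then formaldehyde-fixed, permeabilised and stained overnight for phospho-Akt(Ser473) with anti-tubulin as a reference. Infrared secondary antibodies read at 680 and 800 nm channels by in-cell Western imaging.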

PI3Kβ (p110β/p85α) = target: T2, PI3Kβ (p110β/p85α) (Homo sapiens, UniProt P42338); test: HTRF assay, potency against active PI3Kβ; type: biochemical; details: [ATP]=50 μM, [di-C8-PIP2]=10 μM, 30 min pre-incubation, read-out: PI3Kβ Inhibition
T2 construct: purchased BPS Bioscience (San Diego, Calif.) or Millipore (Billerica, Mass.)
Experimental: Homogeneous Time Resolved Fluorescence (HTRF) Assay Protocol for Potency Assessment Against the Active Forms of PI3Kα, PI3Kβ, and PI3Kγ
The mechanics of the assay platform are best described by the vendor (Millipore, Billerica, Mass.) on their website at the following URL: www.millipore.com/coa/tech1/74jt4z.
Briefly, Stop solution (Stop A, #33-007 and Stop B, #33-009; 3:1 ratio) and Detection Mix (from DMC, #33-015 with DMA, #33-011 and DMB, #33-013; 18:1:1 ratio) were prepared as recommended by the manufacturer about 2 hrs prior to use. […] Lipid kinase reactions were started with the addition of 5 μL of ATP solution, mixed for 15 sec on a rotary plate shaker and incubated for 30-60 minutes at 25° C. Next, reactions were stopped with a 5 μL addition of Stop solution immediately followed by a 5 μL volume of Detection Mix. […] At the conclusion of each assay, the HTRF ratio from fluorescence emission values for each well was calculated and % Inhibition determined from averaged controls wells (+/−PI3K enzyme). % Inhibition values for each compound were then plotted against inhibitor concentration to estimate IC50 from log [Inhibitor] vs Response, Variable Slope model in GraphPad Prism from GraphPad Software (San Diego, Calif.).

PI3Kα (p110α/p85α) = target: T3, PI3Kα (p110α/p85α) (Homo sapiens, UniProt P42336); test: HTRF assay, potency against active PI3Kα; type: biochemical; details: HTRF; [ATP]=50 μM, [di-C8-PIP2]=10 μM; 30 min pre-incubation; read-out: PI3Kα Inhibition
T3 construct: purchased BPS Bioscience (San Diego, Calif.) or Millipore (Billerica, Mass.)
How it was run: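 Active p110/p85α lipid kinase reactions were started with ATP and run 30-60 minutes at 25 °C, then stopped and developed with HTRF detection mix. HTRF ratio converted to % inhibition against ±enzyme controls; IC50 from log[inhibitor] vs response, variable slope.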

PI3 kinase = test: Comparison of covalent and non-covalent inhibitors (Tables 18 and 19): prolonged PD, mechanism
Experimental: “A” designates ≦10 nM; “B” designates 10-100 nM; and “C” designates 100-1000 nM

SKOV3 cells = test: GI50 determinations in SKOV3 cells; type: cell-based; details: Homo sapiens, SK-OV-3
Experimental: GI50 Determinations in SKOV3 Cells
A standard curve ranging from 10,000 to 50,000 cells was set up in a separate plate and allowed to adhere to the plate for 4-6 hours, at which time the plate was developed using Cell Titer-Glow (Promega, Madison, Wis.) according to manufacturer's instructions.
The next morning, 3-fold compound dilutions ranging from 10,000 nM to 40 nM were prepared in Proliferation Media containing 1% DMSO. 20 ul of each dilution was added to the SKOV3 cells plated the previous day resulting in a dose response curve from 1000 nM to 4 nM. The cells were incubated for 96 hours and then developed with Cell Titer Glo.
The cell numbers at the end of the assay were determined using the standard curve generated at the start of the assay. Growth inhibition was calculated using the following formulas and GI50s were determined by plotting the % growth inhibition vs. Log compound concentration in GraphPad.
%growth=100×(T−T0)/(C−T0)
T=Cell Number at end of assay T0=Cell Number at start of assay (5000) C=Number of cells in DMSO controls at end of assay
%growth inhibition=100−%growth

PI3Kα [2] = target: T4, PI3Kα (Homo sapiens, UniProt P42336); test: Mass spectrometry of intact PI3Kα (Johns Hopkins), 3 hr incubation; type: binding; set-up: Johns Hopkins; details: 10× fold excess of compound, MALDI
Experimental: (§1) Mass Spectrometry for PI3K
Intact PI3Kα (Johns Hopkins) was incubated for 3 hr at a 10× fold excess of II-a-45 or II-a-49 to protein. Aliquots (3 μL) of the samples were diluted with 10 μL of 0.1% TFA prior to micro C4 ZipTipping directly onto the MALDI target using Sinapinic acid as the desorption matrix (10 mg/ml in 0.1% TFA:Acetonitrile 50:50).
Target sequence in this assay (P42336 whole entry): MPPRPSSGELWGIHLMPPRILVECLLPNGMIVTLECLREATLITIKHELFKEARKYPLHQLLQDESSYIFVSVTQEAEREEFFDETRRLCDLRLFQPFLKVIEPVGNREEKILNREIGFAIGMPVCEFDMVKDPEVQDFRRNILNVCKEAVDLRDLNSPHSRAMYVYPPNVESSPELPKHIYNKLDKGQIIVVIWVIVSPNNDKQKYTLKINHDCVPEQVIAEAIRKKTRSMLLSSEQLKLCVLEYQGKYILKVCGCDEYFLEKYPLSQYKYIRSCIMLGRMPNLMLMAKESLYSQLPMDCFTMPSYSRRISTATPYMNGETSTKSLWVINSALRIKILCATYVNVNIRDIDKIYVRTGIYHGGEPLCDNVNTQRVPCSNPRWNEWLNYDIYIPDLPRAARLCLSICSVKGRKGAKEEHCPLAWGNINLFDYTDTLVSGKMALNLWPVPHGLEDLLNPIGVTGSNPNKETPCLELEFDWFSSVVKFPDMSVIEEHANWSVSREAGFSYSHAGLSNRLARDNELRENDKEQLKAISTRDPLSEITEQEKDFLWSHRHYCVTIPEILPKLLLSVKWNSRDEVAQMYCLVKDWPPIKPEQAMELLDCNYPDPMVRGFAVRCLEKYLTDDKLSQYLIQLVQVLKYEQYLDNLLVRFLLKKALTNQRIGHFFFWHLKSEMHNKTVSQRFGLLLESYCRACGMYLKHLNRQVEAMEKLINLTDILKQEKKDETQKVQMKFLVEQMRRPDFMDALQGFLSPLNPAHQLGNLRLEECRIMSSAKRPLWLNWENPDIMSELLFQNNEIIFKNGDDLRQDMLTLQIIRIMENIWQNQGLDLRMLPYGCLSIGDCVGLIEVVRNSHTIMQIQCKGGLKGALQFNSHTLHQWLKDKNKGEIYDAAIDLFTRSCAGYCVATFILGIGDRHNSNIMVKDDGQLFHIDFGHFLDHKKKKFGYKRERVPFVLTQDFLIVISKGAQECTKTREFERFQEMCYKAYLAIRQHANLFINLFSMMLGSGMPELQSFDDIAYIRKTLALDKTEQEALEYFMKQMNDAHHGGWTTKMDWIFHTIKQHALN
Target sequence in this assay (P27986 322-600 partner limits assumed): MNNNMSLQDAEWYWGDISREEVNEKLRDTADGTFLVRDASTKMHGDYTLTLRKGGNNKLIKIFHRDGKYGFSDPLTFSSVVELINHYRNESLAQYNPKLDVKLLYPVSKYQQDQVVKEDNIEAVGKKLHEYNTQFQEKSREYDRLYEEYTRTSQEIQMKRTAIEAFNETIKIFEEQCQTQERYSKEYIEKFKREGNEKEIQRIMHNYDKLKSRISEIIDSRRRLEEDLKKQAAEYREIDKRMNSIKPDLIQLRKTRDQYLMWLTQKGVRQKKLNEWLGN

PI3K = PI3K HCT116 cellular assay (Western blot); type: cell-based; details: Homo sapiens, HCT-116, HCT116 colon cancer cells, 1 hour incubation, read-out: PI3K Inhibition
Experimental: PI3K HCT116 Cellular Assay
Selected compounds were assayed in HCT116 colon cancer cells. […] Cells were then washed with PBS, lysed and the protein lysates were then recovered and analyzed by Western blot.

HCT116 cells = test: HCT-116 cell proliferation assay; type: cell-based; details: Homo sapiens, 72 hours, Cell Titer Glo
Experimental: HCT-116 Cell Proliferation Assay
(§2) For the HCT116 Proliferation Assay, 3000 cells per well were plated in Growth Media (DMEM, 10% FBS, 1% 1-glutamine, 1% penicillin/streptomycin) in 96 well plates. The following day, compounds were added to duplicate wells at concentrations of 10 uM and 3-fold dilutions down to 40 nM. The plates were returned to the incubator for 72 hours and then the assays were developed using Cell Titer Glo (Promega, Madison, Wis.) according to manufacturer's instructions.

SK-OV-3 cells = test: SK-OV-3 cell proliferation assay; type: cell-based; details: Homo sapiens; SK-OV-3 proliferation, 72 hours, Cell Titer Glo
Experimental: SK-OV-3 Cell Proliferation Assay
as §2, with “SK-OV-3 proliferation” for “HCT116 Proliferation”, “5000” for “3000”

Phospho-Akt(Ser473) [3] = test: Dose response in SKOV3 cells as determined by Western blot; type: cell-based; details: Homo sapiens, SK-OV-3, 1 hr, Phospho-Akt normalized to total Akt, read-out: Immunoblot
How it was run: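 SKOV3 cells in DMEM/10% FBS were treated with compound in 0.1% DMSO for 1 hr, then lysed. 50 ug protein was immunoblotted for Phospho-Akt(Ser473) and total Akt with fluorescent read-out. Phospho-Akt was normalized to total Akt and expressed as percent of untreated signal.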

p110alpha = p110alpha (Homo sapiens, UniProt P42336); test: In vitro occupancy in SKOV-3 cells with covalent probe; type: cell-based
Experimental: 150 ug of protein sample was added to a 0.2 ml tube and the volume brought up to 100 ul with IP Buffer from the Protein A/G Plate IP Kit (Pierce Biotechnology, Rockford, Ill.). XIV-a-3 was added at a concentration of 1 uM or XIV-a-4 was added at 50 nM and the tube was incubated at room temperature with rocking for 1 hr.
Protein A/G coated wells from the Protein A/G Plate IP Kit were washed 3× with 200 ul of IP Buffer. […] After incubating at room temperature with shaking for 1 hour, the wells were washed 5× with 200 ul of IP Buffer and the protein samples, preincubated with XIV-a-3, were added to the wells. The wells were incubated overnight at 4° C. with shaking.
The next morning, the wells were washed 5× with 200 ul of IP Buffer. The last wash was allowed to stand for 5 minutes before removal. The immuoprecipitate was eluted from the plate with 40 ul of Pierce Elution Buffer for 30 seconds, after which time the eluate was moved to a 1.5 ml tube containing 4 ul of Pierce Neutralization Buffer. 15 ul of NuPAGE LDS Sample Buffer and 6 ul of NuPAGE Sample Reducing Agent (Invitrogen, Carlsbad, Calif.) were added to each tube and the samples were incubated at 70° C. for 5 minutes.
The blot was rinsed once in water, then incubated for 2 minutes in Qentix Solution 1 (Pierce Biotechnology) followed by 5 rinses in water. The blot was then incubated for 10 minutes in Qentix solution 2, rinsed 5 times in water then blocked in Odyssey Blocking Buffer (Li-Cor) for an hour.
The blot was then incubated overnight at 4° C. with rabbit anti-p110 alpha antibody (Epitomics, Burlingame, Calif.) diluted 1:2500 in PBS/Odyssey Buffer (1:1)+0.1% Tween-20. […]
The blots were washed 2 times for 5 minutes in PBS+0.2% Tween-20, once in distilled water, then scanned on an Odyssey machine (Li-Cor, Lincoln, Nebr.). Band intensity was determined using the Odyssey software and streptavidin (Tool) signal was normalized to total p110 alpha signal within samples, then expressed as a percentage of the untreated signal.

PI3Kα [4] = target: T4, PI3Kα; test: Mass spectrometry of intact PI3Kα (Millipore, 14-602), 1 hr incubation; type: binding; set-up: purchased Millipore 14-602; details: 10× fold excess of compound, MALDI
Experimental: as §1
Target sequence in this assay (P42336 whole entry): as the sequence (P42336 whole entry) above
Target sequence in this assay (P27986 whole entry partner): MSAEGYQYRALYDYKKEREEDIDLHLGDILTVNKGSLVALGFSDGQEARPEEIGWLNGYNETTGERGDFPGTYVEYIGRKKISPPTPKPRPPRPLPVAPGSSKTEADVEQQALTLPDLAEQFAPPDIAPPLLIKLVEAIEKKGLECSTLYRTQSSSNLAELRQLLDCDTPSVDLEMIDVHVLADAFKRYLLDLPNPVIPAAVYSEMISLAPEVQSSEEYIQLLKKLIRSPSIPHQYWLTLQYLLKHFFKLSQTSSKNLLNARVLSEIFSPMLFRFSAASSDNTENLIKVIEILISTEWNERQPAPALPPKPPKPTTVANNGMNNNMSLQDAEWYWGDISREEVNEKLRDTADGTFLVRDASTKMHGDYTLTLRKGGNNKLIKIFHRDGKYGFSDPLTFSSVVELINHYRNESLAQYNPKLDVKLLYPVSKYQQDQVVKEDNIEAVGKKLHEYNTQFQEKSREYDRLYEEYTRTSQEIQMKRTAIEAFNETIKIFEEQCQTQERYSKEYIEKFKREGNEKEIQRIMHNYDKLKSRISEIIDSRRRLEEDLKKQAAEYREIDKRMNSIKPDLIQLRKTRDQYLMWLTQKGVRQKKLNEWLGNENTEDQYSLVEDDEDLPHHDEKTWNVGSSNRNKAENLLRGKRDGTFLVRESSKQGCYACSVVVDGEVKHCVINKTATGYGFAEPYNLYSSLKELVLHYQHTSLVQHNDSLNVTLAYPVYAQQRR
Aliquots (5 μl) of the samples were diluted with 15 μl of 0.2% TFA prior to micro C4 ZipTipping directly onto the MALDI target using Sinapinic acid as the desorption matrix (10 mg/ml in 0.1% TFA:Acetonitrile 50:50).

[5] = Homo sapiens, SK-OV-3, SKOV3 cells, 1 hr, read-out: pAKT Inhibition in cell Western
[6] = Homo sapiens, SK-OV-3, Table 18, assay not given, classes agree with Table 23, read-out: EC50 pAkt^Ser473
[7] = SKOV3 cells, 96 hours, Cell Titer Glo

T2 sequence (P42338 whole entry): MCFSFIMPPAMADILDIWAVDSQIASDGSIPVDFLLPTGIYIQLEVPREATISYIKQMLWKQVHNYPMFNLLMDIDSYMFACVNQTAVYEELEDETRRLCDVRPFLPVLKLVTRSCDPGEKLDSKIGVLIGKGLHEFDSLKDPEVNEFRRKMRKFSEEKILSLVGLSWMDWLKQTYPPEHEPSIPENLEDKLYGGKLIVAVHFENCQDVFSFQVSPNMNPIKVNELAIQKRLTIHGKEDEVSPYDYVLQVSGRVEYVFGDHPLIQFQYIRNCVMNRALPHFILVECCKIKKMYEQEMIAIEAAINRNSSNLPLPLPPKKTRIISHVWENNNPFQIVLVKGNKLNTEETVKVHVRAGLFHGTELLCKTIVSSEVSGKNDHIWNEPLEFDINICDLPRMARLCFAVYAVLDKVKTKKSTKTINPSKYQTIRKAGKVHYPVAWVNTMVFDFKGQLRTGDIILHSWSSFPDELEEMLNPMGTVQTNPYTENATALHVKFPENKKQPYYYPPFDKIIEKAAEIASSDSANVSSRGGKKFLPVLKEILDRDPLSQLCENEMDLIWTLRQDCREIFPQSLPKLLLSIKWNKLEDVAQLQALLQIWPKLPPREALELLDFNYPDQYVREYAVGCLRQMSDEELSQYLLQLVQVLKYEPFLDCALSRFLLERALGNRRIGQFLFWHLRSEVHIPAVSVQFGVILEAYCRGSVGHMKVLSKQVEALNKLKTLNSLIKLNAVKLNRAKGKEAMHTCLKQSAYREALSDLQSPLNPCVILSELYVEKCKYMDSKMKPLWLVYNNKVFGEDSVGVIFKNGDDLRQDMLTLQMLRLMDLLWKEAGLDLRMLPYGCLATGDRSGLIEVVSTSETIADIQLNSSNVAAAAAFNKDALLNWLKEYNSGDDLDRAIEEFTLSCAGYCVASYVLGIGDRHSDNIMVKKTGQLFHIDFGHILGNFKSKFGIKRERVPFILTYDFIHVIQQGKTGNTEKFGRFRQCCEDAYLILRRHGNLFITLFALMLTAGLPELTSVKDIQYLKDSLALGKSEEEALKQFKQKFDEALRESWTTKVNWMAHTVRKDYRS
T2 sequence (P27986 whole entry partner): as the sequence (P27986 whole entry partner) above
T1 sequence (P48736 whole entry): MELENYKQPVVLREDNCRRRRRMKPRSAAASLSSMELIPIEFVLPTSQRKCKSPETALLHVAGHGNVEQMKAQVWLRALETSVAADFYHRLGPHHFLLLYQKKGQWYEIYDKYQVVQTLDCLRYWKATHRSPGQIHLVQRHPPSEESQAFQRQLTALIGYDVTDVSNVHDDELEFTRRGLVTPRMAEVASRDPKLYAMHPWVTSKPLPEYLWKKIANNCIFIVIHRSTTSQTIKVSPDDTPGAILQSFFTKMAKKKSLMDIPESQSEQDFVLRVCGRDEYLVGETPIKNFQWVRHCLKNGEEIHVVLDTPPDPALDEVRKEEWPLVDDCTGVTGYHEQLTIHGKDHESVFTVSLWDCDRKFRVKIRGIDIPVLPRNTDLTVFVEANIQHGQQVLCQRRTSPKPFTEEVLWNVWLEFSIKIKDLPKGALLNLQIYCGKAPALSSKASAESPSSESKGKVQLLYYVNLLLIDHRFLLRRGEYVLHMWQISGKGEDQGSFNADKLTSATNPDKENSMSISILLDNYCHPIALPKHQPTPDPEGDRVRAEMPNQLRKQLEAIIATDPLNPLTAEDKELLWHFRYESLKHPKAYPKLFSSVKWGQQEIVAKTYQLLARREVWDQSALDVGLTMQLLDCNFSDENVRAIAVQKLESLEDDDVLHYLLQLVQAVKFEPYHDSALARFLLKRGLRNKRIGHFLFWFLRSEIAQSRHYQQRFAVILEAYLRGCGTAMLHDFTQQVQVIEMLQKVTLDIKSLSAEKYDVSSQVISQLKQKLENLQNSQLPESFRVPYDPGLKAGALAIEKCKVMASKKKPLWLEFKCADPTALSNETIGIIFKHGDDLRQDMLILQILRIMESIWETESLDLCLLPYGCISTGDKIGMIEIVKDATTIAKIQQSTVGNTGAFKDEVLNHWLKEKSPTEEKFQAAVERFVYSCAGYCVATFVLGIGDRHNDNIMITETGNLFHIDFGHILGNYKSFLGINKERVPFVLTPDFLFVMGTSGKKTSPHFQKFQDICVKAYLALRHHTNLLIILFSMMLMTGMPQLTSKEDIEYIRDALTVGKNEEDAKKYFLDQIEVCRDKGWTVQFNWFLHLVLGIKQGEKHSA
T3 sequence (P42336 whole entry): as the sequence (P42336 whole entry) above
T3 sequence (P27986 whole entry partner): as the sequence (P27986 whole entry partner) above
p110alpha, sequence (P42336 whole entry): as the sequence (P42336 whole entry) above

SMILES | pIC50 (PI3Kγ (p120γ)) | pIC50 (PI3Kβ (p110β/p85α)) | pIC50 (PI3Kα (p110α/p85α)) | covalent modification of PI3Kα (PI3Kα [2]) | pEC50 (PI3K) | pEC50 (HCT116 cells) | pEC50 (SK-OV-3 cells) | also measured
CCC(=O)Nc1ccc(CCNC(=O)c2cc3nc(-c4cccc5[nH]ncc45)nc(N4CCOCC4)c3s2)cc1 [II^R-a-148, 2-(1H-indazol-4-yl)-4-morpholino-N-(4-propionamidophenethyl)thieno[3,2-d]pyrimidine-6-carboxamide] | < 6.00 | < 6.00 | 6.00 to 7.00 |  |  |  |  | pEC50 (Phospho-Akt(Ser473) [1]; [5]): 6.00 to 7.00; pEC50 (Phospho-Akt(Ser473) [1]; [6]): 6.00 to 7.00; Prolonged PD (PI3 kinase; Table 18): No
CC(C)=CC(=O)CCC(=O)N1CCN(C(=O)c2cc3nc(-c4cccc5[nH]ncc45)nc(N4CCOCC4)c3s2)CC1 [II-a-160, 1-(4-(2-(1H-indazol-4-yl)-4-morpholinothieno[3,2-d]pyrimidine-6-carbonyl)piperazin-1-yl)-6-methylhept-5-ene-1,4-dione] |  | < 6.00 | 6.00 to 7.00 |  |  |  |  | GI50 (SKOV3 cells; [7]): 10 to 100 nM
C=C(C)C(=O)CCC(=O)N1CCN(Cc2cc3nc(-c4cccc(O)c4)nc(N4CCOCC4)c3s2)CC1 [II-a-49, 1-(4-((2-(3-hydroxyphenyl)-4-morpholinothieno[3,2-d]pyrimidin-6-yl)methyl)piperazin-1-yl)-5-methylhex-5-ene-1,4-dione] | < 6.00 |  | 7.00 to 8.00 | complete modification; also recorded: covalent modification | > 7.70 | 6.00 to 7.00 | 6.00 to 7.00 | positive mass shift of PI3Kα (PI3Kα [2]): 616 Da
C=CC(=O)Nc1ccc(CCNC(=O)c2cc3nc(-c4cccc5[nH]ncc45)nc(N4CCOCC4)c3s2)cc1 [II-a-148, N-(4-acrylamidophenethyl)-2-(1H-indazol-4-yl)-4-morpholinothieno[3,2-d]pyrimidine-6-carboxamide] |  | < 6.00 | 6.00 to 7.00 |  |  |  |  | GI50 (SKOV3 cells; [7]): 10 to 100 nM; GI50 (SKOV3 cells; Table 19, assay not given, classes agree with Table 26): 10 to 100 nM; pEC50 (Phospho-Akt(Ser473) [3]): ≥ 8.00; target occupancy (competition with the covalent probe) (p110alpha; covalent probe XIV-a-3 or XIV-a-4): Dose-dependent target occupancy; pEC50 (p110alpha; read-out: EC50 for occupying p110alpha, covalent probe XIV-a-3 or XIV-a-4): ~7.40; pEC50 (Phospho-Akt(Ser473) [1]; [5]): 7.00 to 8.00; pEC50 (Phospho-Akt(Ser473) [1]; [6]): 7.00 to 8.00; pEC50 (Phospho-Akt(Ser473) [1]; Table 19, assay not given, classes agree with Table 23, read-out: EC50 pAkt^Ser473): 7.00 to 8.00; Prolonged PD (PI3 kinase; Table 18): Yes; Prolonged PD (PI3 kinase; Table 19): Yes; covalent modification of PI3Kα (PI3Kα [4]): complete modification; also recorded: covalent modification; mass shift of PI3Kα (PI3Kα [4]): 472 Da; mass shift of PI3Kα, per cent in brackets (PI3Kα [4]): 85%
C/C=C/C(=O)CCC(=O)N1CCN(Cc2cc3nc(-c4cccc(O)c4)nc(N4CCOCC4)c3s2)CC1 [II-a-50, (E)-1-(4-((2-(3-hydroxyphenyl)-4-morpholinothieno[3,2-d]pyrimidin-6-yl)methyl)piperazin-1-yl)hept-5-ene-1,4-dione] | < 6.00 |  | > 8.00 | completely modify | > 7.70 | 6.00 to 7.00 | 6.00 to 7.00 | 
C=C(C)C(=O)CCC(=O)N1CCN(Cc2cc3nc(-c4cccc5[nH]ncc45)nc(N4CCOCC4)c3s2)CC1 [II-a-43, 1-(4-((2-(1H-indazol-4-yl)-4-morpholinothieno[3,2-d]pyrimidin-6-yl)methyl)piperazin-1-yl)-5-methylhex-5-ene-1,4-dione] | < 6.00 | < 6.00 | 7.00 to 8.00 | completely modify | > 7.70 | 6.00 to 7.00 | 6.00 to 7.00 | 
O=C(/C=C/C1CC1)CCC(=O)N1CCN(Cc2cc3nc(-c4cccc5[nH]ncc45)nc(N4CCOCC4)c3s2)CC1 [II-a-55, (E)-1-(4-((2-(1H-indazol-4-yl)-4-morpholinothieno[3,2-d]pyrimidin-6-yl)methyl)piperazin-1-yl)-6-cyclopropylhex-5-ene-1,4-dione] | < 6.00 | < 6.00 | 7.00 to 8.00 | completely modify | 7.00 to 7.70 | 6.00 to 7.00 | 5.00 to 6.00 | 
CC/C=C/C(=O)CCC(=O)N1CCN(Cc2cc3nc(-c4cccc5[nH]ncc45)nc(N4CCOCC4)c3s2)CC1 [II-a-53, (E)-1-(4-((2-(1H-indazol-4-yl)-4-morpholinothieno[3,2-d]pyrimidin-6-yl)methyl)piperazin-1-yl)oct-5-ene-1,4-dione] | < 6.00 |  | > 8.00 | completely modify | 7.00 to 7.70 | 6.00 to 7.00 | 6.00 to 7.00 | 
